Measured values from publication PMC10412597, “Small molecule branched-chain ketoacid dehydrogenase kinase (BDK) inhibitors with opposing effects on BDK protein levels” (Nature Communications, 2023).

How the values were obtained:
Cannabinoid CB1 = biological target: T1, Cannabinoid CB1 (Homo sapiens, UniProt P21554); assay: cell-based; set-up: Cerep Bioprint off-target panel, functional receptor agonism or antagonism
T1 construct: gene CNR1
Protocol: (§1) To discover a potent and selective BDK inhibitor, a subset of the Pfizer compound collection was screened. […] Off target activity was assessed in both CEREP and kinase panels (Supplementary Tables 2, 3).

MARK3 = MARK3 (Homo sapiens, UniProt P27448); set-up: Invitrogen kinase panel, per cent inhibition of kinase activity; conditions: 10 µM, inhibitor
Procedure, shortened: (§2)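 Activity was measured in a kinase selectivity panel. The data come from off-target testing of the same BDK inhibitors.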

SPHK1 = SPHK1 (Homo sapiens, UniProt Q9NYA1); set-up: Invitrogen kinase panel, per cent inhibition of kinase activity; conditions: 10 µM, inhibitor
Procedure, shortened: as §2

MAPKAPK2 = MAPKAPK2 (Homo sapiens, UniProt P49137); set-up: Invitrogen kinase panel, per cent inhibition of kinase activity; conditions: 10 µM, inhibitor
Protocol: as §1

PI4KB = PI4KB (Homo sapiens, UniProt Q9UBF8); set-up: Invitrogen kinase panel, per cent inhibition of kinase activity; conditions: 10 µM, inhibitor
Procedure, shortened: as §2

MYLK2 = MYLK2 (Homo sapiens, UniProt Q9H1R3); set-up: Invitrogen kinase panel, per cent inhibition of kinase activity; conditions: 10 µM, inhibitor
Protocol: as §1

PIK3CB = PIK3CB (Homo sapiens, UniProt P42338); set-up: Invitrogen kinase panel, per cent inhibition of kinase activity; conditions: 10 µM, inhibitor
Procedure, shortened: as §2

HER4 = biological target: T2, HER4 (Homo sapiens, UniProt Q15303); set-up: Invitrogen kinase panel, per cent inhibition of kinase activity; conditions: 10 µM, inhibitor
T2 construct: gene ERBB4
Procedure, shortened: as §2

[1] = biological target: T3, Mitogen-Activated Protein Kinase Kinase Kinase Kinase 4 (MAPK4K4) (Homo sapiens, UniProt O95819); set-up: Invitrogen kinase panel, per cent inhibition of kinase activity; conditions: 10 µM, inhibitor
T3 construct: gene MAP4K4
Protocol: as §1

PAK4 = PAK4 (Homo sapiens, UniProt O96013); set-up: Invitrogen kinase panel, per cent inhibition of kinase activity; conditions: 10 µM, inhibitor
Protocol: as §1

KDR = KDR (Homo sapiens, UniProt P35968); set-up: Invitrogen kinase panel, per cent inhibition of kinase activity; conditions: 10 µM, inhibitor
Protocol: as §1

CKI-delta = biological target: T4, CKI-delta (Homo sapiens, UniProt P48730); set-up: Invitrogen kinase panel, per cent inhibition of kinase activity; conditions: 10 µM, inhibitor
T4 construct: gene CSNK1D
Procedure, shortened: as §2

PLK1 = PLK1 (Homo sapiens, UniProt P53350); set-up: Invitrogen kinase panel, per cent inhibition of kinase activity; conditions: 10 µM, inhibitor
Procedure, shortened: as §2

PRKACA = PRKACA (Homo sapiens, UniProt P17612); set-up: Invitrogen kinase panel, per cent inhibition of kinase activity; conditions: 10 µM, inhibitor
Protocol: as §1

ROCK2 = ROCK2 (Homo sapiens, UniProt O75116); set-up: Invitrogen kinase panel, per cent inhibition of kinase activity; conditions: 10 µM, inhibitor
Procedure, shortened: as §2

Rsk2 = biological target: T5, Rsk2 (Homo sapiens, UniProt P51812); set-up: Invitrogen kinase panel, per cent inhibition of kinase activity; conditions: 10 µM, inhibitor
T5 construct: gene RPS6KA3
Procedure, shortened: as §2

MEK1 = biological target: T6, MEK1 (Homo sapiens, UniProt Q02750); set-up: Invitrogen kinase panel, per cent inhibition of kinase activity; conditions: 10 µM, inhibitor
T6 construct: gene MAP2K1
Protocol: as §1

PDPK1 = biological target: T7, PDPK1 (Homo sapiens, UniProt O15530); set-up: Invitrogen kinase panel, per cent inhibition of kinase activity; conditions: 10 µM, inhibitor
T7 sequence (O15530 1-556): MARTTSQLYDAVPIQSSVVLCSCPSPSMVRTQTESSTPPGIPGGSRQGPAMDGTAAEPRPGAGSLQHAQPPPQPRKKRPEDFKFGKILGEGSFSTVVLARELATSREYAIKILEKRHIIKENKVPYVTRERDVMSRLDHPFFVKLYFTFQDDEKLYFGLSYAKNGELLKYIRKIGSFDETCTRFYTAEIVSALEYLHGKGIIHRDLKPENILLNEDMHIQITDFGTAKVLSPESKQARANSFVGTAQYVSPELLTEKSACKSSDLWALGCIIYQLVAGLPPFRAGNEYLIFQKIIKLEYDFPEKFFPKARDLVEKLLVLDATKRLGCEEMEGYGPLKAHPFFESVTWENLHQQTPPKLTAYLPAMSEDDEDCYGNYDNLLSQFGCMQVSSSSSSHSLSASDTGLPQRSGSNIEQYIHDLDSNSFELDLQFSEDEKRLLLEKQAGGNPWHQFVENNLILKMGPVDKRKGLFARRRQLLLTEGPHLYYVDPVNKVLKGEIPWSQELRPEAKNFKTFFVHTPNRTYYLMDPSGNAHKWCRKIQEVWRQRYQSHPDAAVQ
Protocol: as §1

[2] = biological target: T8, Phosphorylase B kinase gamma catalytic chain skeletal muscle isoform (Homo sapiens, UniProt Q16816); set-up: Invitrogen kinase panel, per cent inhibition of kinase activity; conditions: 10 µM, inhibitor
T8 construct: gene PHKG1
Protocol: as §1

CSNK2A2 = CSNK2A2 (Homo sapiens, UniProt P19784); set-up: Invitrogen kinase panel, per cent inhibition of kinase activity; conditions: 10 µM, inhibitor
Protocol: as §1

EPHA2 = EPHA2 (Homo sapiens, UniProt P29317); set-up: Invitrogen kinase panel, per cent inhibition of kinase activity; conditions: 10 µM, inhibitor
Protocol: as §1

PRKCA = biological target: T9, PRKCA (Homo sapiens, UniProt P17252); set-up: Invitrogen kinase panel, per cent inhibition of kinase activity; conditions: 10 µM, inhibitor
T9 construct: 1 mM ATP
Procedure, shortened: as §2

T3 sequence (O95819 whole entry): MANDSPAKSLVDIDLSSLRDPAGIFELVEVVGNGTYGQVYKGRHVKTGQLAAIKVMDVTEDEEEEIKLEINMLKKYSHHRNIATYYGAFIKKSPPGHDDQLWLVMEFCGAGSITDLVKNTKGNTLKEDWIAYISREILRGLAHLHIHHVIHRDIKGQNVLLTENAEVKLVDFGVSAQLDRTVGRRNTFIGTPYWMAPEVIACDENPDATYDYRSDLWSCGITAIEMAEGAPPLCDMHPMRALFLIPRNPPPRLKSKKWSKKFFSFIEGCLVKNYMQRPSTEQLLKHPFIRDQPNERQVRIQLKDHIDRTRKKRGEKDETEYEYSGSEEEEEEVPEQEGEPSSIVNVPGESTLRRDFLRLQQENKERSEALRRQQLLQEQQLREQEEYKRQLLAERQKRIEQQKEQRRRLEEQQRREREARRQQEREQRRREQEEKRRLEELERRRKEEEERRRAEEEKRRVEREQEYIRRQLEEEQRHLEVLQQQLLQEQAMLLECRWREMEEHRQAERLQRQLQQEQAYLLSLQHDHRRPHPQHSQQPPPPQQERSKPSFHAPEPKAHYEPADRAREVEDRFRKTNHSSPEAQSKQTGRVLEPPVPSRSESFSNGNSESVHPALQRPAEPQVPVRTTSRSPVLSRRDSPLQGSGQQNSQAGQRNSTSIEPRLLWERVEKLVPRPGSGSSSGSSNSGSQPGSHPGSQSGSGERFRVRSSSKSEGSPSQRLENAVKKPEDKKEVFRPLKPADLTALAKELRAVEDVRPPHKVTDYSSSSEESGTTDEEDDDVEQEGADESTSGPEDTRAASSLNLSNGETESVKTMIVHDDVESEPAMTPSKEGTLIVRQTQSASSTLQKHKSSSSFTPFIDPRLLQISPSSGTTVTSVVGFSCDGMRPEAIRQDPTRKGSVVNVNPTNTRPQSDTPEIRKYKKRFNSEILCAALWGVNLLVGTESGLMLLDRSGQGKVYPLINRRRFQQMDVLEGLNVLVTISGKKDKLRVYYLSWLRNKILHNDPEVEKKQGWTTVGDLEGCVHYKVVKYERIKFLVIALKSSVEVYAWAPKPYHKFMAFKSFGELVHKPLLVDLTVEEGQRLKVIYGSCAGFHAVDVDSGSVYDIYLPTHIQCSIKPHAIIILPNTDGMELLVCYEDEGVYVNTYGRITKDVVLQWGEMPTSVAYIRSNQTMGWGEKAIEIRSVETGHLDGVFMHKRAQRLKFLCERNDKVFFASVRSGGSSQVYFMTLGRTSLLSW
MAPKAPK2, sequence (P49137 whole entry): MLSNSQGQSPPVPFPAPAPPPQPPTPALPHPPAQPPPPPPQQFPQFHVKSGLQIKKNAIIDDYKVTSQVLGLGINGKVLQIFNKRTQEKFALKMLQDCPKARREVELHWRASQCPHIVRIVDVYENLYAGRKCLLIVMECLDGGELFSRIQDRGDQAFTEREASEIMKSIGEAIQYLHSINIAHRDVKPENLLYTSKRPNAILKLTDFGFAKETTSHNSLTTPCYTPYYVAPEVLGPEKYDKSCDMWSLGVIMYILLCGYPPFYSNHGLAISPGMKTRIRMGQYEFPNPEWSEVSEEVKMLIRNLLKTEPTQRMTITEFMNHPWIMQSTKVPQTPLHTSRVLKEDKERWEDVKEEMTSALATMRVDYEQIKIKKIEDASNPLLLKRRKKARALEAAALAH
CSNK2A2, sequence (P19784 whole entry): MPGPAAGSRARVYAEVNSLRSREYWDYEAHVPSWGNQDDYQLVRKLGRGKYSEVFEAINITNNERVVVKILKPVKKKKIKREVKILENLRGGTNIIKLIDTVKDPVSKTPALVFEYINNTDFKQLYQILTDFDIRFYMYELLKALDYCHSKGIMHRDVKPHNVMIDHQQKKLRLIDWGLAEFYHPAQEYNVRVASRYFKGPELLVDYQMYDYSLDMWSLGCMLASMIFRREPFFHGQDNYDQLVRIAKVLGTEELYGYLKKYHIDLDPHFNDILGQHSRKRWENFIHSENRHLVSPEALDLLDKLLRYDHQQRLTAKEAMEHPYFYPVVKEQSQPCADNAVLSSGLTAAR
PAK4, sequence (O96013 whole entry): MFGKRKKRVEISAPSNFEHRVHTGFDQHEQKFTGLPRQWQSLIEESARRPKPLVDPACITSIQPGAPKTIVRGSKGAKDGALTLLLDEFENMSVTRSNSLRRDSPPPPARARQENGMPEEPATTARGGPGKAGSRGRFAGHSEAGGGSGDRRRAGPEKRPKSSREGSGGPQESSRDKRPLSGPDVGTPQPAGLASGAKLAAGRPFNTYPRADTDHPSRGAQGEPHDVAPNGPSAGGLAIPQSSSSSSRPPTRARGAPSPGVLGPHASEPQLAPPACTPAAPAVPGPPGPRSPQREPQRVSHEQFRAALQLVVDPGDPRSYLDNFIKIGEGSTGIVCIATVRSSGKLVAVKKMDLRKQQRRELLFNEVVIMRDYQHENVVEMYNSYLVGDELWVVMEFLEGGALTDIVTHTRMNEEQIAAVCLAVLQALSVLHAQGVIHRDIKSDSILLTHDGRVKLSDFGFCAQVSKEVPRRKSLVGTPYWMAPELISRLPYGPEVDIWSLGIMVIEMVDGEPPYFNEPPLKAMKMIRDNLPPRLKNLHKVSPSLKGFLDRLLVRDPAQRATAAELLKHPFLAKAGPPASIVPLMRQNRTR
MYLK2, sequence (Q9H1R3 whole entry): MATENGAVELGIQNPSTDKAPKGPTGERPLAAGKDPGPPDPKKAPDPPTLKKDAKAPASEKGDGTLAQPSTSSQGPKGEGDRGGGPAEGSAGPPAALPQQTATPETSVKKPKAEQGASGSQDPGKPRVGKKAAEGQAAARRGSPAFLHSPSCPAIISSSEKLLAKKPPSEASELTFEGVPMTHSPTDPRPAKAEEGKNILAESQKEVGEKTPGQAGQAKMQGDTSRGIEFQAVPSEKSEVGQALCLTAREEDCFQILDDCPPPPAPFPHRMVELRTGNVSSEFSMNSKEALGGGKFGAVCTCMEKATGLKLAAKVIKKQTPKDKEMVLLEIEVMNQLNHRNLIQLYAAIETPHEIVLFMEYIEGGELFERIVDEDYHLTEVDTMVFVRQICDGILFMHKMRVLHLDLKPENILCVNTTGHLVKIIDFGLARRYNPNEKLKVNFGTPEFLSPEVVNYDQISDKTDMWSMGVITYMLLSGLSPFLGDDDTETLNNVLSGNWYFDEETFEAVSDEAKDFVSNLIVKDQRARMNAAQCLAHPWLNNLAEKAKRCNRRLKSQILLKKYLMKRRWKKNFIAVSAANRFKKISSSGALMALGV
KDR, sequence (P35968 whole entry): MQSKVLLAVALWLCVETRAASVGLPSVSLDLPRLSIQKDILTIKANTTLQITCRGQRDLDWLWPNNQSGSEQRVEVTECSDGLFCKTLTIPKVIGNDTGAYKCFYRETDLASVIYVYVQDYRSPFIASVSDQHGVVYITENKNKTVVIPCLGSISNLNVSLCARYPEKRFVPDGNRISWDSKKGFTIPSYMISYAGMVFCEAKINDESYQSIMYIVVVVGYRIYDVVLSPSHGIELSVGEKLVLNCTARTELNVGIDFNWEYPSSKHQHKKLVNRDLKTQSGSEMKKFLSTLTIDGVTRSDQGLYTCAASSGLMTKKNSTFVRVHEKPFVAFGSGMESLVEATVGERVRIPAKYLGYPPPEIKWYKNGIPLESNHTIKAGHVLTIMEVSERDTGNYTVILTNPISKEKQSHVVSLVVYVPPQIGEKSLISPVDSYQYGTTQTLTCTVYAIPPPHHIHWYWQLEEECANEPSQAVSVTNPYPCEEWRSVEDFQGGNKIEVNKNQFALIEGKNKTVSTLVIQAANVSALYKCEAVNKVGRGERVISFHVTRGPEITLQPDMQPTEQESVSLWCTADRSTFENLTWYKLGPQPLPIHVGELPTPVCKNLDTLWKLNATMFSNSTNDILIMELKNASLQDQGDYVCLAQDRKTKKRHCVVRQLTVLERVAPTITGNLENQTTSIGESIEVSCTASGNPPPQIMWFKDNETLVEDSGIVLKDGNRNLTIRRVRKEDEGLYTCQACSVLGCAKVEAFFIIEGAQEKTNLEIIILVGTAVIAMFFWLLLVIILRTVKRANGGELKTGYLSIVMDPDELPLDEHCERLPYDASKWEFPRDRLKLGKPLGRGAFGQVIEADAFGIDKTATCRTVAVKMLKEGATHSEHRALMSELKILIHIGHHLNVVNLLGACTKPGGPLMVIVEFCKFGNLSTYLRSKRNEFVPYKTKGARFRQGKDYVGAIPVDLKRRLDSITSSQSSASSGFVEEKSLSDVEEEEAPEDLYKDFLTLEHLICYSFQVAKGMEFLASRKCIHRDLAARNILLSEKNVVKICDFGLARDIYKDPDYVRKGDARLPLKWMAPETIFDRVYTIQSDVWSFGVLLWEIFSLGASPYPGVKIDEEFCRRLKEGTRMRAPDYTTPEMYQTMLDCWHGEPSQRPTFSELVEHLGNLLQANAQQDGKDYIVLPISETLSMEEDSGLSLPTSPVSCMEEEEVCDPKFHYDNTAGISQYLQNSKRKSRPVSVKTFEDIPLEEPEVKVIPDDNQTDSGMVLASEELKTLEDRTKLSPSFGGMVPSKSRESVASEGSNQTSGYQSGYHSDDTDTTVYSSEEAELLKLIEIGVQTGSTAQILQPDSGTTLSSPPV
T4 sequence (P48730 whole entry): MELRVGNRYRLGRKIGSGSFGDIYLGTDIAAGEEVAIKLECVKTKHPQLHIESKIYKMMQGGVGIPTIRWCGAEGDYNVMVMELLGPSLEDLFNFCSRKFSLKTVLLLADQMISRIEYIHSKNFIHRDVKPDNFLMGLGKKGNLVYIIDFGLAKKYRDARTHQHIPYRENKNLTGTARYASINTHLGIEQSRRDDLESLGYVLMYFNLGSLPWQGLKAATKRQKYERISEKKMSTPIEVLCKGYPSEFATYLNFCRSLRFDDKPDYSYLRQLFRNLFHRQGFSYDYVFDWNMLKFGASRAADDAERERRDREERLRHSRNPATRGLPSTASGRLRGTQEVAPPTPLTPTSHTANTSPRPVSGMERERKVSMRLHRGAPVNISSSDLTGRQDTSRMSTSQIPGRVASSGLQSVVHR

O=C(O)c1sc2cc(F)sc2c1Cl [PF-07208254, 3-chloro-5-fluorothieno[3,2-b]thiophene-2-carboxylic acid]
EC50 (Cannabinoid CB1): 180 µM | ATP = Km % Inhibition PF-07208254 (MARK3): 5.0% | ATP = Km % Inhibition PF-07208254 (SPHK1): -15.9% | ATP = 1 mM % Inhibition PF-07208254 (MAPKAPK2): -1.5% | ATP = Km % Inhibition PF-07208254 (MAPKAPK2): 3.4% | ATP = Km % Inhibition PF-07208254 (PI4KB): 7.9% | ATP = 1 mM % Inhibition PF-07208254 (MYLK2): -0.1% | ATP = Km % Inhibition PF-07208254 (MYLK2): -3.6% | ATP = Km % Inhibition PF-07208254 (PIK3CB): 3.1% | ATP = Km % Inhibition PF-07208254 (HER4): -11.4% | ATP = 1 mM % Inhibition PF-07208254 [1]: -7.5% | ATP = Km % Inhibition PF-07208254 [1]: 11.9% | ATP = 1 mM % Inhibition PF-07208254 (PAK4): 0.9% | ATP = Km % Inhibition PF-07208254 (PAK4): 6.0% | ATP = 1 mM % Inhibition PF-07208254 (KDR): 5.6% | ATP = Km % Inhibition PF-07208254 (KDR): 1.1% | ATP = Km % Inhibition PF-07208254 (CKI-delta): 9.1% | ATP = Km % Inhibition PF-07208254 (PLK1): 1.8% | ATP = 1 mM % Inhibition PF-07208254 (PRKACA): -2.4% | ATP = Km % Inhibition PF-07208254 (PRKACA): 2.7% | ATP = Km % Inhibition PF-07208254 (ROCK2): -5.8% | ATP = Km % Inhibition PF-07208254 (Rsk2): -0.7% | ATP = 100 uM % Inhibition PF-07208254 (MEK1): 4.1% | ATP = 1 mM % Inhibition PF-07208254 (PDPK1): -3.1% | ATP = Km % Inhibition PF-07208254 (PDPK1): -3.2% | ATP = Km % Inhibition PF-07208254 [2]: 1.8% | ATP = 1 mM % Inhibition PF-07208254 (CSNK2A2): 7.3% | ATP = Km % Inhibition PF-07208254 (CSNK2A2): 24.5% | ATP = 1 mM % Inhibition PF-07208254 (EPHA2): -5.6% | ATP = Km % Inhibition PF-07208254 (EPHA2): 0.5% | ATP = Km % Inhibition PF-07208254 (PRKCA): 3.8%

CCC1(COc2ccc(-c3csc(-c4ccccc4C(=O)O)n3)cn2)CC1 [PF-07247685, 2-(4-{6-[(1-ethylcyclopropyl)methoxy]pyridin-3-yl}-1,3-thiazol-2-yl)benzoic acid]
ATP = Km % Inhibition PF-07247685 (MARK3): 2.1% | ATP = Km % Inhibition PF-07247685 (SPHK1): -82.5% | ATP = 1 mM % Inhibition PF-07247685 (MAPKAPK2): 3.3% | ATP = Km % Inhibition PF-07247685 (MAPKAPK2): 2.2% | ATP = Km % Inhibition PF-07247685 (PI4KB): 7.1% | ATP = 1 mM % Inhibition PF-07247685 (MYLK2): 1.7% | ATP = Km % Inhibition PF-07247685 (MYLK2): 1.4% | ATP = Km % Inhibition PF-07247685 (PIK3CB): -3.5% | ATP = Km % Inhibition PF-07247685 (HER4): 7.2% | ATP = 1 mM % Inhibition PF-07247685 [1]: 3.2% | ATP = Km % Inhibition PF-07247685 [1]: 25.5% | ATP = 1 mM % Inhibition PF-07247685 (PAK4): 3.7% | ATP = Km % Inhibition PF-07247685 (PAK4): 8.3% | ATP = 1 mM % Inhibition PF-07247685 (KDR): 0.1% | ATP = Km % Inhibition PF-07247685 (KDR): 2.0% | ATP = Km % Inhibition PF-07247685 (CKI-delta): 6.0% | ATP = Km % Inhibition PF-07247685 (PLK1): 10.1% | ATP = 1 mM % Inhibition PF-07247685 (PRKACA): 0.3% | ATP = Km % Inhibition PF-07247685 (PRKACA): 2.3% | ATP = Km % Inhibition PF-07247685 (ROCK2): 5.5% | ATP = Km % Inhibition PF-07247685 (Rsk2): -1.6% | ATP = 100 uM % Inhibition PF-07247685 (MEK1): 11.2% | ATP = 1 mM % Inhibition PF-07247685 (PDPK1): 2.0% | ATP = Km % Inhibition PF-07247685 (PDPK1): -0.6% | ATP = Km % Inhibition PF-07247685 [2]: 2.2% | ATP = 1 mM % Inhibition PF-07247685 (CSNK2A2): 1.9% | ATP = Km % Inhibition PF-07247685 (CSNK2A2): 7.5% | ATP = 1 mM % Inhibition PF-07247685 (EPHA2): 5.6% | ATP = Km % Inhibition PF-07247685 (EPHA2): 0.6% | ATP = Km % Inhibition PF-07247685 (PRKCA): 14.8%
